Laboratory results published in US20180249725A1, “ANTIMICROBIAL COMPOSITIONS” (priority 2015, published 2018).
Marks after values point to notes of the source that are not given here.

Key:
Listeria monocytogenes = Listeria monocytogenes growth in inoculated raw minced beef under modified atmosphere; format: cell-based; details: for Measured effect on Listeria monocytogenes growth: [(log(CFU/mL) in meat treated with plant extracts) − (log(CFU/mL) control meat (without treatment))]: rosemary/hesperidin series added at 1.18% to minced beef, 8° C., 70% O2 and 30% CO2; for Expected effect on Listeria monocytogenes growth (difference of log(CFU/mL) to control meat): rosemary/hesperidin series, calculated from effects of the single extracts
Description: In the course of the work leading to the present method and composition, mixtures of rosemary extract and of hesperidin or of Punica extract, in a number of varying concentration ratios were tested for antilisterial effectiveness using the classical microbiological methods. Bacterial enumeration in all here studied samples was performed on the Aloa medium according to the standardized method (NF EN ISO 11-290). The growth of Listeria monocytogenes was evaluated in meat without any antilisterial agent and without any plant extract (control). The data of listerial growth in a control meat are represented in FIG. 2. […] Following the meat manufacture, a batch of meat was sampled straight after the mincing process and transported in refrigerated conditions to the laboratory. […] Any further supplementation to the meat was conducted in such a laboratory. […] Plant extracts were in powder form and were added as such to the meat. To keep them as dry powders, plant extracts were supplemented with maltodextrin prior to drying process. […] Control meat pieces, without extract treatment, followed the same procedure. […] Packaged meat was stored in the dark for a stated amount of time. A series of experiments involving rosemary and hesperidin extracts, rosemary and Punica extracts, typical antilisterial compounds (Sodium lactate or Sodium acetate) and untreated control were conducted. Mixtures or alone extracts of rosemary and of hesperidin were added at 1.18% to the meat. […] Such analyses were conducted on the 0th, 6th and 9th day of storage. The growth of Listeria monocytogenes was evaluated in meat in refrigerated conditions for each extract or compound and for their combinations. […] Logarithmic values of Listerial growth (log CFU/mL) were calculated for each experiment and treatment. Differences of logarithmic values of Listerial growth (log CFU/mL) between the meat treated with plant extracts and the untreated control were calculated to yield a final result. The more negative value was obtained, the higher was the antilisterial effect of the extract or of the combination of extracts. […] (Guide pour la validation de méthodes d'essais microbiologiques et l'évaluation de leur incertitude de mesure dans les domaines de la microbiologie […]'environnement), Schweizerische Eidgenossenschaft, Confédération suisse, Département […]'économie, de la formation et de la recherche DEFR, Document No. 328, April 2013, Rev. 03).

[1] = stored in cold; applied at 300 ppm; cited from earlier work
Listeria = details: pure form; cited from earlier work

In the case of COc1ccc([C@@H]2CC(=O)c3c(O)cc(O[C@@H]4O[C@H](CO[C@@H]5O[C@@H](C)[C@H](O)[C@@H](O)[C@H]5O)[C@@H](O)[C@H](O)[C@H]4O)cc3O2)cc1O [Hesperidin], the “Extract proportion in combination that provide antilisterial response in meat” value (Listeria monocytogenes; surface response methodology (FIG. 4), response difference to control <0.5 log(CFU/mL) as printed, total added to meat not above 1.18%) is reported as 0.5-48.0%.

In the case of O=c1oc2c(O)c(O)cc3c(=O)oc4c(O)c(O)cc1c4c23 [ellagic acid], the “Antimicrobial effect on raw beef MAP meat” value [1] is given as “no antimicrobial effect”.

For COc1ccc([C@@H]2CC(=O)c3c(O)cc(O[C@@H]4O[C@H](CO)[C@@H](O)[C@H](O)[C@H]4O[C@@H]4O[C@@H](C)[C@H](O)[C@@H](O)[C@H]4O)cc3O2)cc1O [neohesperidin], the “Effect on Listerial growth in vitro” value (Listeria) is listed as “no effect”.

With hesperidin the “Measured effect on Listeria monocytogenes growth: [(log(CFU/mL) in meat treated with plant extracts) − (log(CFU/mL) control meat (without treatment))]” value (Listeria monocytogenes; after 6 days of growth) was −0.09 log(CFU/mL) and the “Measured effect on Listeria monocytogenes growth: [(log(CFU/mL) in meat treated with plant extracts) − (log(CFU/mL) control meat (without treatment))]” value (Listeria monocytogenes; after 9 days of growth) was −0.64 log(CFU/mL).

With hesperidin [0.5H] the “Measured effect on Listeria monocytogenes growth: [(log(CFU/mL) in meat treated with plant extracts) − (log(CFU/mL) control meat (without treatment))]” value (Listeria monocytogenes; after 6 days of growth) was −0.37* log(CFU/mL), the “Measured effect on Listeria monocytogenes growth: [(log(CFU/mL) in meat treated with plant extracts) − (log(CFU/mL) control meat (without treatment))]” value (Listeria monocytogenes; after 9 days of growth) was −0.71* log(CFU/mL) and the “Expected effect on Listeria monocytogenes growth (difference of log(CFU/mL) to control meat)” value (Listeria monocytogenes; after 6 days of growth) was −0.045 log(CFU/mL). The “Expected effect on Listeria monocytogenes growth (difference of log(CFU/mL) to control meat)” value (Listeria monocytogenes; after 9 days of growth) was −0.32 log(CFU/mL).
